How the values were obtained:
KAT6A = biological target: T1, KAT6A (Homo sapiens, UniProt Q92794); assay: Enzymatic activity assay for KAT6A acetyltransferase (TR-FRET, acetylation of histone substrate H3); type: biochemical
T1 construct: purchased active motife (Active Motif) 81223
Summary of the method: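 TR-FRET detection of biotinylated H3 acetylation by KAT6A with acetyl-CoA; compounds in 10-point 3-fold dilution (0.5% DMSO final) preincubated with enzyme 10 min at 25 °C, then 90 min reaction and 60 min Eu-antibody/ULight-SA detection at 25 °C. HTRF 665/615 ratio normalised to DMSO (0%) and top-dose control (100%); IC50 by nonlinear fit.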

[1] = In-vivo pharmacokinetic study in rats; design: species or system SD female rats; settings: rat, plasma, po, intragastric administration, 5 mg/kg
Procedure: 1.1 Instrument: high-performance liquid chromatograph: SHIMADZU LC-30AD; mass spectrum: AB SCIEX mass spectrometer Triple Quad 5500; all measured data were calculated and processed using Microsoft Excel, and relevant pharmacokinetic parameters were calculated using WinNonlin software. The main obtained kinetic parameters are Tmax, T1/2, Cmax, AUC0-24 h, and AUCinf. […] Sample injection amount: 1 µL.
1.2 Animals: three SD female rats were used. The body weight range was 180-300 g. After purchase, the rats were bred in the experimental animal center for two days for later use. The rats were fasted 12 h before administration and 4 h after administration, and given ad libitum access to water during the assay. Blood samples were taken at predetermined time points after intragastric administration.
1.3 Vehicle: 0.5% HPMC (hydroxypropyl methylcellulose) + 0.4% Tween80 + 99.1% water. Preparation of intragastric administration solution: The compound was precisely weighed, the vehicle was added, and then the drug was completely dissolved by ultrasonication at room temperature for 5 min and prepared into a 0.5 mg/mL solution. After the intragastric administration, blood samples were taken at 0.083 h, 0.25 h, 0.5 h, 1.0 h, 2.0 h, 4.0 h, 7.0 h, and 24 h. The blood collection mode is as follows: 0.2 mL of the jugular vein blood was collected, EDTA-K2 was used as an anticoagulation agent, the collected blood sample was transferred into a microcentrifuge tube containing the anticoagulation agent, and the tube was centrifuged at 4 °C and 4000 g for 5 min to separate the plasma. All plasma samples collected were stored at -75±15 °C until analysis.
The compound was precisely weighed and prepared into a standard curve working solution and a quality control working solution at different concentrations. The blank plasma was added and prepared into a plasma standard curve and a quality control sample. LC/MS/MS analysis was performed after pretreatment using a protein precipitation method, and then the concentration of the compounds described above in the plasma was measured. All measured data were collected and processed by the relevant software, and pharmacokinetic parameters were calculated using Winnonlin software. Table 9. Pharmacokinetic parameters of some compounds in the examples in rats

hERG channel = biological target: T2, hERG channel (Homo sapiens, UniProt Q12809); assay: hERG channel assay (manual patch clamp); type: cell-based; settings: HEK-293 cell line stably expressing the hERG channel, room temperature
T2 construct: expressed in transfected cells; host or cells: HEK-293
T2 sequence (Q12809 whole entry): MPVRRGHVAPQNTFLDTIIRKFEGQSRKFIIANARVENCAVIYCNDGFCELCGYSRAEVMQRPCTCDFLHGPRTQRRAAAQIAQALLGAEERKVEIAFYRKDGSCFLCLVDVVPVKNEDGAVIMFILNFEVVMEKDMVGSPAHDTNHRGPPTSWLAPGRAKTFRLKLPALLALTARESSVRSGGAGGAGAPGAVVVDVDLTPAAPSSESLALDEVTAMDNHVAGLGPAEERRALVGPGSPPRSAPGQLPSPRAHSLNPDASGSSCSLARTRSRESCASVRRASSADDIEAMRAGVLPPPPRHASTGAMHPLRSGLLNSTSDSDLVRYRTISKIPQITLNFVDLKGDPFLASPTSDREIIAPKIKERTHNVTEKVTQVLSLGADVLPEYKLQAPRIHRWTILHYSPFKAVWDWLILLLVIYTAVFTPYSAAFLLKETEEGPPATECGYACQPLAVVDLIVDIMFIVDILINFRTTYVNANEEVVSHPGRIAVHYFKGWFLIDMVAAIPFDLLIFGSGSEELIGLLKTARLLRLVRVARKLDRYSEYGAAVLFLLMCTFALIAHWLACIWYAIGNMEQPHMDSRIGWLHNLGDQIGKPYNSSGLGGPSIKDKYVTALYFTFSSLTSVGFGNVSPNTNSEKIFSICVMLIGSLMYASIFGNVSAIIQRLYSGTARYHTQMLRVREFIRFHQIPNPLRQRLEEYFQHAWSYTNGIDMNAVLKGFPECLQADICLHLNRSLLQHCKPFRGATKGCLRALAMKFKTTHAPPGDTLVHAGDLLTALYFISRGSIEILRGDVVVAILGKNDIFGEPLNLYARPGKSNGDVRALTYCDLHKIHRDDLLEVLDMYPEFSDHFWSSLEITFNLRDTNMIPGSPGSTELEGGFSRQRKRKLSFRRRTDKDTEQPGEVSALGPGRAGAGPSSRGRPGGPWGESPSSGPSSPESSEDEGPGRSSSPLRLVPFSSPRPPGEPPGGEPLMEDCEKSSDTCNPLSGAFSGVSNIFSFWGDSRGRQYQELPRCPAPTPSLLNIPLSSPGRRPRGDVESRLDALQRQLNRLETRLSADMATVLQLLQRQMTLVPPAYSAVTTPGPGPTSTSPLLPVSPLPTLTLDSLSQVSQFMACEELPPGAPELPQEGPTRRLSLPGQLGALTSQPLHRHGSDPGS
Procedure: 1.1 Test methods: This experiment adopted a manual patch clamp technology to detect the blocking effect of the compounds on electric current in the HEK-293 cell line stably expressing the hERG channel, and the risk of the compounds on the inhibitory effect on the cardiac hERG potassium channel was evaluated by fitting a concentration-effect relationship.
1.2 Experimental procedures: The patch clamp operation was performed as follows: Firstly, a capillary glass tube was drawn into a recording electrode with a microelectrode drawing instrument. An electrode filled with the intracellular fluid was mounted on the microelectrode holder. Under an inverted microscope, a microelectrode manipulator was used to immerse the electrode in the extracellular fluid, and the electrode resistance (Rpip) was recorded. The electrode was then slowly brought into contact with the cell surface, and negative pressure was applied to form a GΩ seal. At this time, fast capacitance compensation was performed, and the application of negative pressure was continued to break the cell membrane, forming a whole-cell recording mode. Finally, slow capacitance compensation was performed, and experimental parameters such as series resistance (Rs) were recorded. No current leakage compensation was provided. Administration was started when the hERG current of the whole-cell record was stable. Each drug concentration was maintained for about 5 min (or until the current was stable) for action before the next concentration was measured. Multiple concentrations were measured for each test compound. The coverslip with cells applied thereon was placed in the recording chamber under the inverted microscope. Gravity perfusion was used to flow the blank control extracellular fluid and the working solutions of the test compounds sequentially from low to high concentrations over the cells in the recording chamber. A peristaltic pump was used for liquid exchange during recording. For each cell, the current detected in the compound-free extracellular fluid was used as its own control group. The test was independently repeated three times for each concentration. All electrophysiological experiments were performed at room temperature.
Data processing: First, the tail current (Peak tail currentcompound) after the action of each drug concentration was standardized with the tail current of the blank control (Peak tail currentcontrol), and then the inhibition rate corresponding to each drug concentration was calculated ( 1−(Peak tail currentcompound)/(Peak tail currentcontrol) [formula] ). Subsequently, the mean, standard deviation (SD), and standard error (SE) were calculated for the inhibition rate corresponding to each concentration. The data were represented by Mean ± SE. IC50 value calculation of the compounds and dose-effect curve fitting were performed using the GraphPad Prism software. The data obtained are shown in Table 12: Table 12. hERG channel assay results

T1 sequence (Q92794 whole entry): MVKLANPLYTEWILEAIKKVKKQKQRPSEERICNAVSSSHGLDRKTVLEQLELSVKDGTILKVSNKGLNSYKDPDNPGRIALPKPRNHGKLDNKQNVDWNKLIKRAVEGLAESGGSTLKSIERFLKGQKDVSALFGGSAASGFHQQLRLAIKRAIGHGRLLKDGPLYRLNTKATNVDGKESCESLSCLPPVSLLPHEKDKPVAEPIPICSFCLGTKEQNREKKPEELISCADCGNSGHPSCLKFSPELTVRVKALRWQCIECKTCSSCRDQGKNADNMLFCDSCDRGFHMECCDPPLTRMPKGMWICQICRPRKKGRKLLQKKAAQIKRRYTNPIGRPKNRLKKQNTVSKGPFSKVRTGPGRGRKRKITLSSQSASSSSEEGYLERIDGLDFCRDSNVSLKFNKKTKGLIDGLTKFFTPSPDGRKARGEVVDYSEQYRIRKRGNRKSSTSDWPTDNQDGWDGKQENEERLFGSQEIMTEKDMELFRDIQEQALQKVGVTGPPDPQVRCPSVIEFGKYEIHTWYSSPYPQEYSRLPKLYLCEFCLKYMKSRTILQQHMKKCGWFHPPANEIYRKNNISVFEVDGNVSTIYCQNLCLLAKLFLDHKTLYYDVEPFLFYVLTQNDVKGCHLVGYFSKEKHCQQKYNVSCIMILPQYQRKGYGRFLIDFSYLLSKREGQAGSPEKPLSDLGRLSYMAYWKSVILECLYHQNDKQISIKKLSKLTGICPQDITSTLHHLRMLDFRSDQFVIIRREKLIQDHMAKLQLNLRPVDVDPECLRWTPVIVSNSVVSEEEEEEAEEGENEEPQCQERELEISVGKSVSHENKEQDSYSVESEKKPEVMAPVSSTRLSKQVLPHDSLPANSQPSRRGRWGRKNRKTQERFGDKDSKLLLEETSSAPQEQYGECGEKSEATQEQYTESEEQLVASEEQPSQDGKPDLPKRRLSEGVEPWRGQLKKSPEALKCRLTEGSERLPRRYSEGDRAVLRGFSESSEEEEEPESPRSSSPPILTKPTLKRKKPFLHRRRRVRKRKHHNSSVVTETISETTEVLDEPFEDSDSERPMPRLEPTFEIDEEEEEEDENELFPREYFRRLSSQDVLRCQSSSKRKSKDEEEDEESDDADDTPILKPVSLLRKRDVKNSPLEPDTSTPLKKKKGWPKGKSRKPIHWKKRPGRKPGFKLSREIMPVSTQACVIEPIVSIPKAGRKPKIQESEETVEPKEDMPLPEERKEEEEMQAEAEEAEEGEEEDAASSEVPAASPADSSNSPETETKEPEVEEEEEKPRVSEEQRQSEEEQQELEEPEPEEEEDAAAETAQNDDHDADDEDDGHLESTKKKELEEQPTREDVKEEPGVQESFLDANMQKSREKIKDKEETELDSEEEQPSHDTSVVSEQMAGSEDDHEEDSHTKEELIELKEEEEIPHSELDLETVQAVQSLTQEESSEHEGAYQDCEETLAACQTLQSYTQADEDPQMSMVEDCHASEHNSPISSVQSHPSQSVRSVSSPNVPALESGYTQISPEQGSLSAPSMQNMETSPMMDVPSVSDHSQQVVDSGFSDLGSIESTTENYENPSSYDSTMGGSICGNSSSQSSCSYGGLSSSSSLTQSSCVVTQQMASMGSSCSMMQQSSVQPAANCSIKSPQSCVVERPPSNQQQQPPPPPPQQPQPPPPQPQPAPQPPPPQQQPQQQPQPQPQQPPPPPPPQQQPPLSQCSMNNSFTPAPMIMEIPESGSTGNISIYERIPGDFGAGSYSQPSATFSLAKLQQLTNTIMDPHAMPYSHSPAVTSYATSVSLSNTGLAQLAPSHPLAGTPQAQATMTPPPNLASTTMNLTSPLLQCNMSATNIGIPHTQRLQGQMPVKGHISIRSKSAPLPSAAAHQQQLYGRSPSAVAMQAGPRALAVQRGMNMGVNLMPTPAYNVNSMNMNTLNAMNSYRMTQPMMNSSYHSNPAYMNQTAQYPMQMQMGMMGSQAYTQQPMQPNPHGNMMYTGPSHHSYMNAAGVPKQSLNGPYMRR

| Structure (SMILES) | IC50 (KAT6A) [nM] | AUC(0-inf) ([1]; female, SD) [ng·h/mL] | Cmax ([1]; female, SD) [ng/mL] | Tmax ([1]; female, SD) [h] | AUC(0-t) ([1]; female, SD, read-out: AUC0-24h) [ng·h/mL] | IC50 (hERG channel) [nM] | half-life ([1]; female, SD) [h] | AUC(0-inf) [1] [ng·h/mL] | Cmax [1] [ng/mL] | Tmax [1] [h] | AUC(0-t) at 24 h ([1]; read-out: AUC0-24h) [ng·h/mL] |
| --- | --- | --- | --- | --- | --- | --- | --- | --- | --- | --- | --- |
| COc1ccc2ccoc2c1S(=O)(=O)Nc1noc2cc(Cn3cccn3)nc(OC)c12 [Example 10, N-(6-((1H-Pyrazol-1-yl)methyl)-4-methoxyisoxazolo[4,5-c]pyridin-3-yl)-6-methoxybenzofuran-7-sulfonamide] | 0.38 | 74300 | 10500 | 0.5 | 72300 | > 30000 | – | – | – | – | – |
| COc1nc(Cn2cccn2)cc2onc(NS(=O)(=O)c3cccc4ccoc34)c12 [Example 5, N-(6-((1H-Pyrazol-1-yl)methyl)-4-methoxyisoxazolo[4,5-c]pyridin-3-yl)benzofuran-7-sulfonamide] | 4.52 | 19700 | 5960 | 0.25 | 18500 | > 30000 | ≤ 10 | – | – | – | – |
| COc1cc2c(cc1S(=O)(=O)Nc1noc3cc(Cn4cccn4)nc(OC)c13)CCCO2 [Example 76, N-(6-((1H-Pyrazol-1-yl)methyl)-4-methoxyisoxazolo[4,5-c]pyridin-3-yl)-7-methoxy-3,4-dihydro-1H-benzopyran-6-sulfonamide] | 1.05 | – | – | – | – | – | – | 162000 | 14400 | 2.33 | 158000 |
| COc1nc(Cn2cccn2)cc2onc(NS(=O)(=O)c3cccc4c3OCCO4)c12 [Example 4, N-(6-((1H-Pyrazol-1-yl)methyl)-4-methoxyisoxazolo[4,5-c]pyridin-3-yl)-2,3-dihydrobenzo[b][1,4]dioxine-5-sulfonamide] | 1.51 | 12000 | 5960 | 0.25 | 11800 | > 30000 | – | – | – | – | – |
| COc1cc2c(cc1S(=O)(=O)Nc1noc3cc(Cn4cccn4)nc(OC)c13)CCCC2 [Example 2, N-(6-((1H-Pyrazol-1-yl)methyl)-4-methoxyisoxazolo[4,5-c]pyridin-3-yl)-3-methoxy-5,6,7,8-tetrahydronaphthalene-2-sulfonamide] | 0.72 | 71500 | 4410 | 6 | 64800 | > 30000 | ≤ 10 | – | – | – | – |
| COc1cc2c(cc1S(=O)(=O)Nc1noc3cc(Cn4cccn4)nc(OC)c13)OCC2 [Example 59, N-(6-((1H-Pyrazol-1-yl)methyl)-4-methoxyisoxazolo[4,5-c]pyridin-3-yl)-5-methoxy-2,3-dihydrobenzofuran-6-sulfonamide] | 0.95 | 167000 | 16500 | 1.17 | 166000 | > 30000 | – | – | – | – | – |
| COc1ccc2c(c1S(=O)(=O)Nc1noc3cc(Cn4cccn4)nc(OC)c13)OCC2 [Example 9, N-(6-((1H-Pyrazol-1-yl)methyl)-4-methoxyisoxazolo[4,5-c]pyridin-3-yl)-6-methoxy-2,3-dihydrobenzofuran-7-sulfonamide] | 0.92 | 215000 | 22500 | 1.83 | 215000 | > 30000 | – | – | – | – | – |

Reference: patent publication EP4692094A1 (Beijing Konruns Pharmaceutical Co., Ltd., priority 2023, dated 2024)
